Data as given in article PMC4186383, “Evaluation of radical scavenging properties of shikonin” (Journal of Clinical Biochemistry and Nutrition, 2014).

Legend:
[1] = target: T1, Nox2 (NADPH oxidase 2, flavocytochrome b558) (Sus scrofa, UniProt P52649); assay: cell-free reconstitution assay, SOD-sensitive cytochrome c reduction; assay type: biochemical
T1 construct: gene CYBB; detergent-solubilized resting neutrophil membranes (1 pmol Nox2/flavocytochrome b558) plus cytosol; with cytosolic components of the Nox2 system

[2] = target: T1, Nox2 (NADPH oxidase 2, flavocytochrome b558); assay: cell-free reconstitution assay, NADPH oxidation; assay type: biochemical

Compound	IC50 [1]	IC50 [2]
CC(C)=CC[C@H](O)C1=CC(=O)c2c(O)ccc(O)c2C1=O [alkannin]	2200 nM	
CC(C)=CC[C@@H](O)C1=CC(=O)c2c(O)ccc(O)c2C1=O [shikonin]		1100 nM
